According to patent publication US20240124389A1, “COMPOUND OR SALT THEREOF, LIPID PARTICLES, AND PHARMACEUTICAL COMPOSITION” (FUJIFILM Corporation, priority 2021, published 2024):

How the values were obtained:
human EPO = experiment: Measurement of EPO enzyme activity (EPO protein in blood plasma of mice after intravenous administration of EPO mRNA lipid particles); type: in vivo; details: C57BL/6J mice, tail-vein i.v., mRNA 0.1 mg/kg, plasma 20 to 24 hours
Procedure: (§1) The compounds described in Table 1, the neutral lipid, cholesterol (product name: Cholesterol HP; NIPPON FINE CHEMICAL CO., LTD.), and 1,2-dimyristoyl-rac-glycero-3-(methylpolyoxyethylene 2000) (hereinafter, called DMG-PEG2000) (product name: SUNBRIGHT® GM-020; NOF corporation) were dissolved in ethanol at a molar ratio in Table 1 such that the total lipid concentration became 20 mmol/L, thereby obtaining an oil phase.
(§2) As the neutral lipid, 1,2-distearoyl-sn-glycero-3-phosphocholine (product name: COATSOME® MC-8080; NOF corporation) (hereinafter, DSPC), or L-α-dioleoyl phosphatidylethanolamine (Hereinafter, DOPE) (product name: COATSOME® ME-8181; NOF corporation), or 1,2-dioleoyl-sn-glycero-3-phosphocholine (hereinafter, DOPC) (product name: COATSOME® MC-8181; NOF corporation) was used.
(§3) EPO mRNA (product name: CleanCap EPO mRNA (5moU); TriLink) was diluted with 50 mmol/L citrate buffer having a pH 4 such that the weight ratio of total lipid concentration to mRNA concentration is about 16:1 to 64:1, thereby obtaining a water phase. Then, the water phase and the oil phase were mixed together using NanoAssemblr (Precision NanoSystems) such that the volume ratio of water phase:oil phase was 3:1, and the mixed solution was 1.5-fold diluted with phosphate buffered saline (PBS), thereby obtaining a dispersion liquid of mRNA lipid particles. The dispersion liquid was dialyzed with a 10% aqueous sucrose solution using a dialysis cassette (Slide-A-Lyzer G2, MWCO: 10 kD, Thermo Fisher Scientific) to remove ethanol, thereby obtaining EPO mRNA-encapsulating lipid particles.
The dispersion liquid of mRNA lipid particles prepared in above-described <Preparation of EPO mRNA-encapsulating lipid particles> was tail-vein intravenously administered to C57BL/6J mice at a mRNA dosage of 0.1 mg/kg. 20 to 24 hours after the administration, blood was collected from the caudal vena cava, thereby obtaining blood plasma. The human EPO enzyme activity was quantified by using the obtained blood plasma and ab119522 Erythropoietin (EPO) Human Elisa Kit (Abcam.plc). The quantitative value is described as a relative amount of EPO protein in a case where Comparative Example 1 is 1.

[1] = Particle size of EPO mRNA-encapsulating lipid particles; type: physicochemical
Procedure: as §1, §2, §3
(§4) The particle size of the mRNA-encapsulating lipid particles was measured by 10-fold diluting the dispersion liquid of lipid particle with phosphate buffered saline (PBS) using Zeta-potential & Particle size Analyzer ELS-Z2 (Otsuka Electronics Co., Ltd.).

EPO mRNA = experiment: mRNA encapsulation rate of EPO mRNA-encapsulating lipid particles; type: physicochemical
Procedure: as §1, §2, §3
(§5) 15 to 30 μL of a 3 mol/L aqueous sodium acetate solution and 4.5 to 9 μL of glycogen were added to 30 to 60 μL of the lipid particles retaining mRNA, and 0.75 to 1.5 mL of ethanol was added thereto, so that only the nucleic acids were precipitated while the lipid was dissolved. Then, the supernatant was removed by centrifugation. The precipitates were air-dried for 15 minutes or longer, then water was added thereto to redissolve the precipitates, and the concentration thereof was measured using Nanodrop NF1000 (Thermo Fisher Scientific), thereby quantifying the total mRNA concentration.
(§6) The mRNA concentration was quantified using a Quant-iT RiboGreen RNA Assay Kit (Thermo Fisher Scientific) according to the protocol. First, a 20×TE buffer included in the above-described kit was diluted with water, thereby obtaining a 1×TE buffer. TE represents Tris/EDTA (ethylenediaminetetraacetic acid). In order to quantify only mRNA in the outer water phase, the dispersion liquid of lipid particles retaining mRNA was 10,000-fold diluted with the 1×TE buffer. 100 μL of the 10,000-fold diluted dispersion liquid of lipid particles was put into a 96-well plate, then 100 μL of a RiboGreen reagent (reagent included in the Quanti-iT Ribogreen RNA Assay Kit described above) 2,000-fold diluted with the 1×TE buffer was added to a sample, and fluorescence (excitation wavelength: 485 nm, fluorescence wavelength: 535 nm) was measured using a plate reader Infinite F200 (TECAN), thereby quantifying the mRNA concentration in the outer water phase.
(§7) By using the quantification results of the total mRNA concentration and the mRNA concentration in the outer water phase that were obtained through the above steps, the mRNA encapsulation rate of the mRNA lipid particles was calculated according to the following Equation.
(§8) mRNA encapsulation rate (%)=(total mRNA concentration-mRNA concentration in outer water phase)/total mRNA concentration×100

[2] = Particle size of FLuc mRNA-encapsulating lipid particles; type: physicochemical; details: aminolipid 45 / DOPE 10 / cholesterol 43.5 / DMG-PEG2000 1.5 mol %, lipid/nucleic acid 32 wt/wt
Procedure: as §1, with “Table 2,” for “Table 1,”, “HP; NTPPON” for “HP; NIPPON”, “DMG-PEG2000)” for “DMG-PEG2000) (product name: SUNBRIGHT® GM-020; NOF corporation)”, “Table 2” for “Table 1”
(§9) As the neutral lipid, 1,2-distearoyl-sn-glycero-3-phosphocholine (product name: COATSOME® MC-8080; NOF corporation) was used in a case of Comparative Example 1, and L-α-dioleoylphosphatidylethanolamine (product name: COATSOME® MC-8181; NOF corporation) was used in a case other than Comparative Example 1.
as §3, with “FLuc” for “EPO”, “(5 moU);” for “(5moU);”, “19:1” for “16:1”, “64:1,” for “64:1, thereby”
as §4

FLuc mRNA = experiment: mRNA encapsulation rate of FLuc mRNA-encapsulating lipid particles; type: physicochemical; details: aminolipid 45 / DOPE 10 / cholesterol 43.5 / DMG-PEG2000 1.5 mol %, lipid/nucleic acid 32 wt/wt
Procedure: as §1, with “Table 2,” for “Table 1,”, “HP; NTPPON” for “HP; NIPPON”, “DMG-PEG2000)” for “DMG-PEG2000) (product name: SUNBRIGHT® GM-020; NOF corporation)”, “Table 2” for “Table 1”
as §9
as §3, with “FLuc” for “EPO”, “(5 moU);” for “(5moU);”, “19:1” for “16:1”, “64:1,” for “64:1, thereby”
as §5, §6, §7, §8

[3] = aminolipid 45 / DOPE 10 / cholesterol 43.5 / DMG-PEG2000 1.5 mol %, lipid/nucleic acid 64 wt/wt
[4] = aminolipid 50 / DOPE 10 / cholesterol 38.5 / DMG-PEG2000 1.5 mol %, lipid/nucleic acid 64 wt/wt
[5] = aminolipid 50 / DSPC 10 / cholesterol 38.5 / DMG-PEG2000 1.5 mol %, lipid/nucleic acid 20 wt/wt

Particle size [1, 4]	Nucleic acid encapsulation rate (EPO mRNA; [4])	SMILES	Relative amount of EPO protein (with respect to Comparative Example 1) (human EPO; [4])	further results
		CCCCCCSCCOC(=O)CCCC(CCCC(=O)OCCSCCCCCC)OC(=O)OCCN(CCOC(=O)OC(CCCC(=O)OCCSCCCCCC)CCCC(=O)OCCSCCCCCC)CCN(CC)CC [Example 43, Bis(2-(hexylthio)ethyl) 11-(2-(diethylamino)ethyl)-5,17-bis(4-(2-(hexylthio)ethoxy)-4-oxobutyl)-7,15-dioxo-6,8,14,16-tetraoxa-11-azahenicosanedioate]		Relative amount of EPO protein (with respect to Comparative Example 1) (human EPO; [3]): 3.12; Particle size [1, 3]: 155.0 nm; Nucleic acid encapsulation rate (EPO mRNA; [3]): 95.7%; Particle size [2]: 144 nm; Nucleic acid encapsulation rate (FLuc mRNA): 100.0%
80.6 nm	97.9%	CCCCCCCC(CCCC(=O)OCC(CCCCC)CCCCC)OC(=O)OCCN(CCOC(=O)OC(CCCCCCC)CCCC(=O)OCC(CCCCC)CCCCC)CCN(CC)CC (centres unmarked) [Example 24, Bis(2-pentylheptyl) 11-(2-(diethylamino)ethyl)-5,17-diheptyl-7,15-dioxo-6,8,14,16-tetraoxa-11-azahenicosanedioate]	1.46	
88.8 nm	100%	CCCCCCCC/C=C\CCCCCCCC(=O)OCCN(CCOC(=O)OC(CCCCCC)CCCCCCCCC(=O)OCC(CCCCCC)CCCCCCCC)CCN(CC)CC (centres unmarked) [Comparative Example 2, reference compound]	0.74	
73.2 nm	98.6%	CCCCCCC(CCCC(=O)OCC(CCCCC)CCCCC)OC(=O)OCCN(CCOC(=O)OC(CCCCCC)CCCC(=O)OCC(CCCCC)CCCCC)CCN(C)C (centres unmarked) [Example 11, Bis(2-pentylheptyl) 11-(2-(dimethylamino)ethyl)-5,17-dihexyl-7,15-dioxo-6,8,14,16-tetraoxa-11-azahenicosanedio ate]	2.70	
81.7 nm	96.9%	CCCCCCC(CCC(=O)OCC(CCCCC)CCCCC)OC(=O)OCCN(CCOC(=O)OC(CCCCCC)CCC(=O)OCC(CCCCC)CCCCC)CCN(CC)CC (centres unmarked) [Example 17, Bis(2-pentylheptyl) 10-(2-(diethylamino)ethyl)-4,16-dihexyl-6,14-dioxo-5,7,13,15-tetraoxa-10-azanonadecanedioate]	2.93	
133.4 nm	100.0%	CCCCCC(CCCCC)COC(=O)CCCC(CC)OC(=O)OCCN(CCOC(=O)OC(CC)CCCC(=O)OCC(CCCCC)CCCCC)CCN(CC)CC (centres unmarked) [Example 20, Bis(2-pentylheptyl) 11-(2-(diethylamino)ethyl)-5,17-dietyl-7,15-dioxo-6,8,14,16-tetraoxa-11-azahenicosanedioate]	3.22	
132.8 nm	88.8%	CCCCCCCCOC(=O)CCCC(CCCC(=O)OCCCCCCCC)OC(=O)OCCN(CCOC(=O)OC(CCCC(=O)OCCCCCCCC)CCCC(=O)OCCCCCCCC)CCN(CC)CC [Example 33, Dioctyl 11-(2-(diethylamino)ethyl)-5,17-bis(4-(octyloxy)-4-oxobutyl)-7,15-dioxo-6,8,14,16-tetraoxa-1 1-azahenicosanedioate]	2.70	
76.8 nm	97.5%	CCCCCC(CCCCC)COC(=O)CCCC(CCCCC)OC(=O)OCCN(CCOC(=O)OC(CCCCC)CCCC(=O)OCC(CCCCC)CCCCC)CCN(CC)CC (centres unmarked) [Example 23, Bis(2-pentylheptyl) 11-(2-(diethylamino)ethyl)-7,15-dioxo-5,17-dipentyl-6,8,14,16-tetraoxa-11-azahenicosanedioate]	3.60	
		CCCCC/C=C\C/C=C\CCCCCCCCC(CCCCCCCC/C=C\C/C=C\CCCCC)OC(=O)CCCN(C)C [Comparative Example 1, reference compound]		Relative amount of EPO protein (with respect to Comparative Example 1) (human EPO; [5]): 1; Particle size [1, 5]: 89.0 nm; Nucleic acid encapsulation rate (EPO mRNA; [5]): 93.4%
165.3 nm	95.5%	CCCCCCOC(=O)CCCC(CCCC(=O)OCCCCCC)OC(=O)OCCN(CCOC(=O)OC(CCCC(=O)OCCCCCC)CCCC(=O)OCCCCCC)CCN(CC)CC [Example 32, Dihexyl 11-(2-(diethylamino)ethyl)-5,17-bis(4-(hexyloxy)-4-oxobutyl)-7,15-dioxo-6,8,14,16-tetraoxa-11-azahenicosanedioate]	4.03	

SMILES	Particle size [1, 4]	Nucleic acid encapsulation rate (EPO mRNA; [4])	Relative amount of EPO protein (with respect to Comparative Example 1) (human EPO; [4])	further results
CCCCCC(CCCCC)COC(=O)CCCC(C)OC(=O)OCCN(CCOC(=O)OC(C)CCCC(=O)OCC(CCCCC)CCCCC)CCN(CC)CC (centres unmarked) [Example 19, Bis(2-pentylheptyl) 11-(2-(diethylamino)ethyl)-5,17-dimethyl-7,15-dioxo-6,8,14,16-tetraoxa-11-azahenicosanedio ate]	147.0 nm	100.0%	1.26	
